Reference: paper PMC5519068 (PLoS ONE, 2017)

How the values were obtained:
[1] = system: Flt3-ITD+ AML cell lines (MV4-11, MOLM-13, MOLM-14); test: Apoptosis, Apo-ONE Caspase 3/7 assay; assay type: cell-based, human; settings: 1.0 μM, 72 h
Protocol: Cells were seeded at a density of 100,000 cells per 1.0 ml in 48-well culture plates. Compounds were added to various concentrations while holding the DMSO concentration constant at 0.1%. Cell viability was assessed 72 hours later using the CellTiter-Blue Cell Viability assay (Promega) according to the manufacturer’s protocol and a SpectraMax Multi-Mode Microplate Reader (Molecular Devices). IC50 values were determined by non-linear regression analysis of concentration-response curves using the GraphPad PRISM software package (version 6.0). Apoptosis was determined using the same cell culture conditions and the Apo-ONE Homogeneous Caspase-3/7 Assay (Promega) and the manufacturer’s protocol.
Cell viability was measured in parallel using the CellTiter-Blue assay, and the resulting data are presented as the ratio of Caspase activity to cell viability as per the manufacturer’s protocol. All assays were performed in triplicate, and data are presented as the mean ratios ± SD. Asterisks indicate statistical significance between each treatment group vs. the corresponding DMSO control group with p < 0.05 (Student’s t-test).

[2] = system: Flt3-ITD in TF-1/Flt3-ITD cells; test: Immunoprecipitation/immunoblot of Flt3 phosphotyrosine content in TF-1/Flt3-ITD cells; assay type: cell-based, human; settings: compound at in vitro IC90 for Fes, 16 h (tandutinib: IC90 for Flt3-ITD, 6 h)
Protocol: AML cells (2.5 x 10^6 in 5 mL) were cultured in the presence of kinase inhibitors or DMSO alone for 6 to 16 hours prior to lysis by sonication in RIPA buffer (50 mM Tris-HCl, pH 7.4, 150 mM NaCl, 1 mM EDTA, 1% Triton X-100, 0.1% SDS, 1% sodium deoxycholate) supplemented with 1 mM sodium orthovanadate, 1 mM sodium fluoride, 5 units/ml Benzonase (Novagen), and SigmaFAST EDTA-free protease inhibitor cocktail (Sigma). Flt3 and Fes were immunoprecipitated from 1 mg of cell lysate with 2 μg of antibody and 25 μL of protein G-Sepharose beads (Life Technologies) overnight at 4°C. Immunoprecipitates were washed three times by resuspension in 1.0 ml of RIPA buffer. Immunoprecipitated proteins were separated by SDS-PAGE, transferred to PVDF membranes and probed with the indicated antibodies followed by alkaline phosphatase-linked secondary antibodies. CDP-Star Western Blot Chemiluminescence Reagent (Perkin-Elmer) was used for detection.
Raw fluorescence data were corrected for background and then normalized to cultures grown in the presence of the DMSO carrier solvent. Each condition was performed in triplicate, and results are presented as the mean of the normalized values ± the SD. The resulting dose-response curves were fitted by non-linear regression analysis for estimation of the IC50 values (see Table 2). […] Fes and Flt3 kinase proteins were then immunoprecipitated from cell lysates followed by immunoblotting with antibodies to phosphotyrosine (pTyr), the Fes activation loop phosphotyrosine (pY713), as well as the Flt3 and Fes proteins.

Flt3-WT kinase domain = target: T1, Flt3-WT kinase domain (Homo sapiens, UniProt P36888); test: In vitro kinase assay (Z'-LYTE); assay type: biochemical; settings: ATP at Km
T1 construct: Recombinant Flt3-WT, Flt3-ITD, and Flt3-D835Y kinase domain proteins were purchased from Life Technologies; purchased Life Technologies
Protocol: (§1) Recombinant protein kinase assays were performed using the FRET-based Z’-LYTE Kinase Assay according to the manufacturer’s instructions (Thermo Fisher Scientific). […] The Tyr-2 peptide was used as substrate for all recombinant kinases. Kinases were preincubated with inhibitors for 30 minutes, followed by addition of ATP and peptide substrate for 1 hour. Reactions were quenched by addition of development reagent, followed by incubation for an additional hour prior to fluorescence measurements on a SpectraMax M5 microplate reader. IC50 values were calculated by non-linear regression analysis of the resulting concentration-response curves using GraphPad PRISM.

Flt3-ITD kinase domain = Flt3-ITD kinase domain (Homo sapiens, UniProt P36888); test: In vitro kinase assay (Z'-LYTE); assay type: biochemical; settings: ATP at Km
Protocol: as §1

Flt3-D835Y kinase domain = target: T2, Flt3-D835Y kinase domain (Homo sapiens, UniProt P36888, D835Y); test: In vitro kinase assay (Z'-LYTE); assay type: biochemical; settings: for IC50: ATP at Km
T2 construct: Recombinant Flt3-WT, Flt3-ITD, and Flt3-D835Y kinase domain proteins were purchased from Life Technologies; purchased Life Technologies
T2 sequence (P36888 610-943 D835Y limits assumed): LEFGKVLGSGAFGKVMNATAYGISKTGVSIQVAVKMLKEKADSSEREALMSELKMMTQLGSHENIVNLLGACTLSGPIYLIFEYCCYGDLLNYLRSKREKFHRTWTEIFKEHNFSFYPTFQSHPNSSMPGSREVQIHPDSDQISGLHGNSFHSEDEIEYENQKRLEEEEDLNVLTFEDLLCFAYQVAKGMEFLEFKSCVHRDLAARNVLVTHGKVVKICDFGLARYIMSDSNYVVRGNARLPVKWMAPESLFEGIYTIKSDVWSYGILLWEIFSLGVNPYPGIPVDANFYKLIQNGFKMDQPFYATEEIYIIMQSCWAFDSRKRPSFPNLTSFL
Protocol: as §1

[3] = system: bone marrow mononuclear cells from normal donors; test: Apoptosis by flow cytometry for cell-surface phosphatidylserine in normal cells (non-specific cytotoxicity); assay type: cell-based, human; settings: 3 μM; three normal donors
Protocol: Cells were then analyzed on a BD Accuri C6 Flow cytometer and the resulting data were evaluated using the BD CSampler software.
The presence of apoptotic cells was then assayed 48 and 72 h later by flow cytometry for cell-surface phosphatidylserine. […] To assess non-specific cytotoxicity, bone marrow mononuclear cells from three normal donors were cultured and treated with inhibitors under identical conditions, followed by flow cytometry for apoptotic cells.

Flt3 = target: Flt3; set-up: method as in PMID 22520759; settings: cited from earlier work

## COc1cc(N2CCC(O)CC2)ccc1Nc1nc(Nc2ccccc2S(=O)(=O)C(C)C)c2cn[nH]c2n1 [WZ4-49-1]
[1]
  Apoptosis (Caspase 3/7 activity) in Flt3-ITD+ AML cell lines: less pronounced
[2]
  Inhibition of Flt3-ITD phosphotyrosine content in TF-1/Flt3-ITD cells: only inhibited the activity of Fes
Flt3-WT kinase domain
  IC50: 3140 nM
Flt3-ITD kinase domain
  IC50: 1390 nM
Flt3-D835Y kinase domain
  IC50: 642 nM
Flt3-D835Y kinase domain; in vitro kinase assays
  Sensitivity of Flt3-D835Y compared to wild-type Flt3 in vitro: about 5 fold

## CCN1CCN(Cc2ccc(NC(=O)c3ccc(C)c(Oc4ccnc5[nH]ccc45)c3)cc2C(F)(F)F)CC1 [HG7-92-01]
[3]
  Increase in apoptosis in normal bone marrow mononuclear cells: ≤ 10%
[1]
  Apoptosis (Caspase 3/7 activity) in Flt3-ITD+ AML cell lines: equal to or greater than that observed with tandutinib
Flt3
  KINOMEscan binding to Flt3: bind to a wider range of kinases (including Flt3)
[2]
  Inhibition of Flt3-ITD phosphotyrosine content in TF-1/Flt3-ITD cells: inhibited both Flt3-ITD and Fes
Flt3-WT kinase domain
  IC50: 536 nM
Flt3-ITD kinase domain
  IC50: 149 nM
Flt3-D835Y kinase domain
  IC50: 3650 nM
